Assay results: PMC9501810, “Bitter Peptides YFYPEL, [sequence], and [sequence], Released during Gastric Digestion of Casein, Stimulate Mechanisms of Gastric Acid Secretion via Bitter Taste Receptors TAS2R16 and TAS2R38” (Journal of Agricultural and Food Chemistry, 2022)
Values joined by “and” are separate entries in the source; they are usually repeats but may differ in a detail not shown here. Equal entries are not always repeated.

Columns and labels:
Type in all cases: cell-based, human
HGT-1 cells = test: Proton secretion assay (intracellular proton index IPX, SNARF-1-AM)
Description: (§1) The measurement of proton secretion from HGT-1 cells represents a well-established model for the identification of bitter compounds. By affecting extraoral bitter taste receptors with bitter compounds, a modulatory effect on proton secretion can be measured. For this purpose, cells were washed with KRHB and incubated with 3 μM of the intracellular pH indicator 1,5 carboxy-seminaphto-rhodafluor acetoxymethyl ester (SNARF-1-AM) under standard conditions. After 30 min, the cells were washed again with KRHB and then incubated with casein (0.01–10 μM equimolar related to the relevant forms αS1- and β-casein), hydrolysate (0.01–10 μM), or the peptides (0.01–200 μM). […] All substances were dissolved and diluted in KRHB. 1 mM histamine was used as a positive control. Measurements were performed using FlexStation 3 (Molecular Devices, USA). The excitation wavelength was 488 nm, and the emission wavelengths were 580 and 640 nm. For calibration (pH range 7.0–8.0), the intracellular and extracellular pH was adjusted with 2 μM nigericin in potassium buffer (20 mM NaCl, 110 mM KCl, 1 mM CaCl2, 1 mM MgSO4, 18 mM D-glucose, and 20 mM HEPES). The intracellular proton index (IPX) was calculated as the log2 value of the 580/640 ratio and compared with cells without treatment. Negative values represent increased secretion of protons and therefore stimulation of mechanisms regulating gastric acid secretion in HGT-1 cells. In contrast, positive values represent an inhibition of secretion compared to the untreated control.

TAS2R41 = test: RT-qPCR gene expression of TAS2R41 in HGT-1 cells; settings: VAPFPEVF 17.5 µM, YFYPEL 0.03 µM, YQEPVLGPVRGPFPIIV 0.4 µM, normalized to PPIA and GAPDH and untreated cells, mean, n = 3–5
Description: (§2) For mRNA expression analysis, 800,000 cells were seeded in a T25 cell culture flask (25 cm^2) 1 day before the experiment. After incubation with 17.5 μM […], 0.03 μM YFYPEL, or 0.4 μM […] for 15, 30, 60, and 120 min, RNA was isolated using the peqGOLD RNA Kit (VWR Peqlab, USA) following the manufacturer’s protocol. Determination of RNA concentration (A260/A280 between 2.03 and 2.09) was performed on a NanoDrop One^c (Thermo Fisher Scientific Inc., USA). RNA integrity number (RIN 9.9–10.0, version 2.6, assay class Eukaryote Total RNA Nano) was analyzed using a 2100 Bioanalyzer (Agilent Technologies, USA). Removal of gDNA and synthesis of cDNA were performed using the iScript gDNA Clear cDNA Synthesis Kit (BioRad, Feldkirchen, Germany) following the manufacturer’s protocol. Real-time-qPCR (RT-qPCR) was performed with 50 ng cDNA amplified with SsoAdvanced Universal SYBR Green Supermix (Bio-Rad Laboratories, Inc., USA). The sequences of the forward and reverse primers of the 25 TAS2Rs were taken from Liszt et al.([13]) (Supporting Information Table-SI 3). Verified primers for the TAS1Rs (TAS1R1: qHsaCID0013443; TAS1R2: qHsaCID0016106; TAS1R3: qHsaCED0002321) and for MAPK1 (qHsaCEP0050000) were obtained from Bio-Rad Laboratories. PPIA[37] and GAPDH[38] were used as reference genes. The effects of the peptides on gene expression were analyzed in comparison to untreated control cells.

TAS2R20 = test: RT-qPCR gene expression of TAS2R20 in HGT-1 cells; settings: VAPFPEVF 17.5 µM, YFYPEL 0.03 µM, YQEPVLGPVRGPFPIIV 0.4 µM, normalized to PPIA and GAPDH and untreated cells, mean, n = 3–5
Description: as §2

TAS2R7 = test: RT-qPCR gene expression of TAS2R7 in HGT-1 cells; settings: VAPFPEVF 17.5 µM, YFYPEL 0.03 µM, YQEPVLGPVRGPFPIIV 0.4 µM, normalized to PPIA and GAPDH and untreated cells, mean, n = 3–5
Description: as §2

TAS2R39 = test: RT-qPCR gene expression of TAS2R39 in HGT-1 cells; settings: VAPFPEVF 17.5 µM, YFYPEL 0.03 µM, YQEPVLGPVRGPFPIIV 0.4 µM, normalized to PPIA and GAPDH and untreated cells, mean, n = 3–5
Description: as §2

TAS2R16 = test: Proton secretion assay in TAS2R16 knock-down vs mock-transfected HGT-1 cells; settings: TAS2R16kd vs mock-transfected HGT-1 cells, VAPFPEVF 17.5 µM, YFYPEL 0.03 µM, YQEPVLGPVRGPFPIIV 0.4 µM, 10 min, mean ± SEM
Description: as §1
Expression of TAS2R16 and TAS2R38 was reduced by treatment of HGT-1 cells with siRNA. 100,000 cells per well were seeded 1 day before the experiment into a 24-well plate. All reagents and siRNA were purchased from Thermo Fisher Scientific, USA (cytotoxicity was excluded by MTT). Transfection was performed with Lipofectamine RNAiMAX in Opti-Medium according to the manufacturer’s protocol. 1–50 nM of different siRNA sequences (HSS121396 and HSS181763 for TAS2R16 and HSS108754 and HSS108756 for TAS2R38) and three different incubation times (24, 48, and 72 h) were tested. Mock control experiments were performed analogously with 1 or 10 nM Stealth RNAi siRNA negative control. To verify the functionality of the transfection process, verified 10 nM siRNA targeting MAPK1 (VHS40312) was used (positive control). The transfection rate was checked by qPCR as described in section 2.11. For the proton secretion assays, 20,000 cells per well were seeded 1 day before transfection into a black 96-well plate. After 72 h of transfection, proton secretion activities of TAS2R16 knock-down or TAS2R38 knock-down HGT-1 were compared with the mock transfected cells by means of ΔIPX.

TAS1R3 = test: RT-qPCR gene expression of TAS1R3 in HGT-1 cells; settings: 0.03 µM YFYPEL, 15 min, p < 0.0001
Description: as §2

TAS2R3 = test: RT-qPCR gene expression of TAS2R3 in HGT-1 cells; settings: VAPFPEVF 17.5 µM, YFYPEL 0.03 µM, YQEPVLGPVRGPFPIIV 0.4 µM, normalized to PPIA and GAPDH and untreated cells, mean, n = 3–5
Description: as §2

TAS2R45 = test: RT-qPCR gene expression of TAS2R45 in HGT-1 cells; settings: VAPFPEVF 17.5 µM, YFYPEL 0.03 µM, YQEPVLGPVRGPFPIIV 0.4 µM, normalized to PPIA and GAPDH and untreated cells, mean, n = 3–5
Description: as §2

TAS2R43 = test: RT-qPCR gene expression of TAS2R43 in HGT-1 cells; settings: VAPFPEVF 17.5 µM, YFYPEL 0.03 µM, YQEPVLGPVRGPFPIIV 0.4 µM, normalized to PPIA and GAPDH and untreated cells, mean, n = 3–5
Description: as §2

## YFYPEL [bitter casein peptide αS1-CN144–149]
HGT-1 cells; 0.1 µM, 10 min incubation in KRHB, IPX = log2 of 580/640 ratio, negative = stimulated proton secretion, mean ± SEM, n = 4–8
  ΔIPX (change in intracellular proton index vs untreated cells): −0.253 ± 0.027
HGT-1 cells; VAPFPEVF 17.5 µM, YFYPEL 0.03 µM, YQEPVLGPVRGPFPIIV 0.4 µM, 10 min, p < 0.01
  proton secretion with peptide alone compared to untreated control cells: increased proton secretion
HGT-1 cells; curve fit over 0.01–200 µM proton secretion profile
  concentration with the lowest IPX value (minimum of curve fit; highest impact on secretory activity): 0.03 µM
HGT-1 cells; peptide (VAPFPEVF 17.5 µM, YFYPEL 0.03 µM, YQEPVLGPVRGPFPIIV 0.4 µM) + 1 mM probenecid, 10 min, vs untreated cells, mean ± SEM
  ΔIPX on co-incubation with probenecid: −0.001 ± 0.019
TAS2R41; incubation 15 min
  change in gene expression of TAS2R41: 2.82 fold change
TAS2R41; incubation 30 min
  change in gene expression of TAS2R41: 1.56 fold change
TAS2R41; incubation 60 min
  change in gene expression of TAS2R41: 4.58 fold change
TAS2R41; incubation 120 min
  change in gene expression of TAS2R41: 3.00 fold change
TAS2R20; incubation 15 min
  change in gene expression of TAS2R20: 1.37 fold change
TAS2R20; incubation 30 min
  change in gene expression of TAS2R20: 0.93 fold change
TAS2R20; incubation 60 min
  change in gene expression of TAS2R20: 0.94 fold change
TAS2R20; incubation 120 min
  change in gene expression of TAS2R20: 1.16 fold change
TAS2R7; incubation 15 min
  change in gene expression of TAS2R7: 1.23 fold change
TAS2R7; incubation 30 min
  change in gene expression of TAS2R7: 2.50 fold change
TAS2R7; incubation 60 min
  change in gene expression of TAS2R7: 6.71 fold change and 6.71 ± 1.56 fold change
TAS2R7; incubation 120 min
  change in gene expression of TAS2R7: 1.18 fold change
TAS2R39; incubation 15 min
  change in gene expression of TAS2R39: 1.21 fold change
TAS2R39; incubation 30 min
  change in gene expression of TAS2R39: 0.42 fold change
TAS2R39; incubation 60 min
  change in gene expression of TAS2R39: 0.62 fold change
TAS2R39; incubation 120 min
  change in gene expression of TAS2R39: 0.45 fold change
TAS2R16; 72 h after 10 nM siRNA
  decrease of the peptide-induced increase in proton secretion activity in TAS2R16kd cells: 86.3 ± 9.9%
TAS2R16; negative = reduction
  change of peptide-induced proton secretion, TAS2R16kd (Figure 5B–D): -86.3 ±9.9%
TAS1R3
  change in expression of TAS1R3: significant increase
TAS2R3; incubation 15 min
  change in gene expression of TAS2R3: 1.54 fold change
TAS2R3; incubation 30 min
  change in gene expression of TAS2R3: 1.08 fold change
TAS2R3; incubation 60 min
  change in gene expression of TAS2R3: 1.19 fold change
TAS2R3; incubation 120 min
  change in gene expression of TAS2R3: 1.34 fold change
TAS2R45; incubation 15 min
  change in gene expression of TAS2R45: 1.15 fold change
TAS2R45; incubation 30 min
  change in gene expression of TAS2R45: 0.54 fold change
TAS2R45; incubation 60 min
  change in gene expression of TAS2R45: 0.70 fold change
TAS2R45; incubation 120 min
  change in gene expression of TAS2R45: 0.94 fold change
TAS2R43; incubation 15 min
  change in gene expression of TAS2R43: 1.49 fold change
TAS2R43; incubation 30 min
  change in gene expression of TAS2R43: 0.64 fold change
TAS2R43; incubation 60 min
  change in gene expression of TAS2R43: 0.91 fold change
TAS2R43; incubation 120 min
  change in gene expression of TAS2R43: 1.02 fold change
